In the NIST ThermoML archive (doi:10.1016/j.jct.2017.03.026):
Several values for one entry are separate records, joined by “and”; a condition that tells them apart may be missing. Identical values can stand only once. Numbers after ± are expanded uncertainties.

Experiment: molar heat capacity at constant pressure
Details: 101.33 kPa, Crystal, Small (less than 1 g) adiabatic calorimetry

Q: Which results are given for `O.O.O.O.O.O=S(=O)([O-])[O-].[Cu+2]` [copper(II) sulfate pentahydrate]?
A: molar heat capacity at constant pressure (101.73 K): 117.59 ± 0.57 J/K/mol; molar heat capacity at constant pressure (101.86 K): 118.59 ± 0.81 J/K/mol; molar heat capacity at constant pressure (102.08 K): 117.97 ± 0.57 J/K/mol; molar heat capacity at constant pressure (102.79 K): 118.7 ± 0.57 J/K/mol; molar heat capacity at constant pressure (102.91 K): 119.62 ± 0.81 J/K/mol; molar heat capacity at constant pressure (103.83 K): 120.63 ± 0.81 J/K/mol; molar heat capacity at constant pressure (103.84 K): 119.78 ± 0.58 J/K/mol; molar heat capacity at constant pressure (103.89 K): 120.08 ± 0.58 J/K/mol; molar heat capacity at constant pressure (103.96 K): 120.8 ± 0.81 J/K/mol; molar heat capacity at constant pressure (104.14 K): 120.09 ± 0.57 J/K/mol; molar heat capacity at constant pressure (104.36 K): 121.29 ± 0.81 J/K/mol; molar heat capacity at constant pressure (104.89 K): 120.9 ± 0.58 J/K/mol; molar heat capacity at constant pressure (105.01 K): 121.85 ± 0.82 J/K/mol; molar heat capacity at constant pressure (105.93 K): 122.01 ± 0.58 J/K/mol; molar heat capacity at constant pressure (106.06 K): 122.97 ± 0.82 J/K/mol; molar heat capacity at constant pressure (106.2 K): 122.39 ± 0.58 J/K/mol; molar heat capacity at constant pressure (106.46 K): 123.36 ± 0.83 J/K/mol; molar heat capacity at constant pressure (106.97 K): 123.24 ± 0.59 J/K/mol; molar heat capacity at constant pressure (106.98 K): 123.14 ± 0.58 J/K/mol; molar heat capacity at constant pressure (107.12 K): 123.92 ± 0.83 J/K/mol; molar heat capacity at constant pressure (107.46 K): 124.56 ± 0.82 J/K/mol; molar heat capacity at constant pressure (108.03 K): 124.25 ± 0.59 J/K/mol; molar heat capacity at constant pressure (108.17 K): 125.23 ± 0.83 J/K/mol; molar heat capacity at constant pressure (108.27 K): 124.44 ± 0.59 J/K/mol; molar heat capacity at constant pressure (109.08 K): 125.36 ± 0.59 J/K/mol; molar heat capacity at constant pressure (109.1 K): 126.13 ± 0.83 J/K/mol; molar heat capacity at constant pressure (109.23 K): 126.17 ± 0.83 J/K/mol; molar heat capacity at constant pressure (110 K): 126.2 ± 0.6 J/K/mol; molar heat capacity at constant pressure (110.06 K): 126.42 ± 0.59 J/K/mol; molar heat capacity at constant pressure (110.13 K): 126.46 ± 0.59 J/K/mol; molar heat capacity at constant pressure (110.29 K): 127.26 ± 0.84 J/K/mol; molar heat capacity at constant pressure (110.33 K): 126.54 ± 0.59 J/K/mol; molar heat capacity at constant pressure (110.57 K): 127.78 ± 0.84 J/K/mol; molar heat capacity at constant pressure (111.18 K): 127.44 ± 0.59 J/K/mol; molar heat capacity at constant pressure (111.37 K): 128.56 ± 0.84 J/K/mol; molar heat capacity at constant pressure (111.74 K): 128.74 ± 0.84 J/K/mol; molar heat capacity at constant pressure (112.23 K): 128.52 ± 0.6 J/K/mol; molar heat capacity at constant pressure (112.4 K): 128.7 ± 0.6 J/K/mol; molar heat capacity at constant pressure (112.43 K): 129.57 ± 0.84 J/K/mol; molar heat capacity at constant pressure (113.16 K): 129.6 ± 0.6 J/K/mol; molar heat capacity at constant pressure (113.29 K): 129.54 ± 0.6 J/K/mol; molar heat capacity at constant pressure (113.49 K): 130.69 ± 0.85 J/K/mol; molar heat capacity at constant pressure (113.69 K): 130.98 ± 0.85 J/K/mol; molar heat capacity at constant pressure (114.34 K): 130.68 ± 0.61 J/K/mol; molar heat capacity at constant pressure (114.38 K): 131.41 ± 0.85 J/K/mol; molar heat capacity at constant pressure (114.47 K): 130.81 ± 0.61 J/K/mol; molar heat capacity at constant pressure (114.56 K): 131.62 ± 0.86 J/K/mol; molar heat capacity at constant pressure (115.39 K): 131.78 ± 0.61 J/K/mol; molar heat capacity at constant pressure (115.62 K): 132.81 ± 0.85 J/K/mol; molar heat capacity at constant pressure (116.25 K): 132.9 ± 0.61 J/K/mol; molar heat capacity at constant pressure (116.44 K): 132.81 ± 0.61 J/K/mol; molar heat capacity at constant pressure (116.54 K): 133.18 ± 0.61 J/K/mol; molar heat capacity at constant pressure (116.68 K): 133.94 ± 0.86 J/K/mol; molar heat capacity at constant pressure (116.81 K): 134.01 ± 0.86 J/K/mol; molar heat capacity at constant pressure (117.02 K): 134.2 ± 0.86 J/K/mol; molar heat capacity at constant pressure (117.5 K): 133.84 ± 0.61 J/K/mol; molar heat capacity at constant pressure (117.75 K): 134.93 ± 0.86 J/K/mol; molar heat capacity at constant pressure (118.55 K): 134.96 ± 0.62 J/K/mol; molar heat capacity at constant pressure (118.62 K): 135 ± 0.62 J/K/mol; molar heat capacity at constant pressure (118.81 K): 136.22 ± 0.87 J/K/mol; molar heat capacity at constant pressure (119.36 K): 135.88 ± 0.62 J/K/mol; molar heat capacity at constant pressure (119.63 K): 136.14 ± 0.62 J/K/mol; molar heat capacity at constant pressure (119.67 K): 137.03 ± 0.87 J/K/mol; molar heat capacity at constant pressure (119.88 K): 137.17 ± 0.87 J/K/mol; molar heat capacity at constant pressure (119.93 K): 137.32 ± 0.87 J/K/mol; molar heat capacity at constant pressure (120 K): 136.3 ± 0.6 J/K/mol; molar heat capacity at constant pressure (120.69 K): 136.94 ± 0.62 J/K/mol and 137.14 ± 0.62 J/K/mol; molar heat capacity at constant pressure (120.95 K): 138.19 ± 0.87 J/K/mol; molar heat capacity at constant pressure (121.74 K): 138.15 ± 0.63 J/K/mol; molar heat capacity at constant pressure (122.02 K): 139.11 ± 0.88 J/K/mol; molar heat capacity at constant pressure (122.32 K): 139.58 ± 0.88 J/K/mol; molar heat capacity at constant pressure (122.46 K): 138.97 ± 0.63 J/K/mol; molar heat capacity at constant pressure (122.8 K): 139.17 ± 0.63 J/K/mol and 139.26 ± 0.63 J/K/mol; molar heat capacity at constant pressure (123.07 K): 140.4 ± 0.88 J/K/mol; molar heat capacity at constant pressure (123.09 K): 140.26 ± 0.88 J/K/mol; molar heat capacity at constant pressure (123.86 K): 140.26 ± 0.63 J/K/mol; molar heat capacity at constant pressure (124.16 K): 141.38 ± 0.88 J/K/mol; molar heat capacity at constant pressure (124.88 K): 141.31 ± 0.63 J/K/mol; molar heat capacity at constant pressure (124.91 K): 141.44 ± 0.63 J/K/mol; molar heat capacity at constant pressure (124.97 K): 142.22 ± 0.88 J/K/mol; molar heat capacity at constant pressure (125.23 K): 142.7 ± 0.89 J/K/mol; molar heat capacity at constant pressure (125.57 K): 142.11 ± 0.63 J/K/mol; molar heat capacity at constant pressure (125.97 K): 142.63 ± 0.64 J/K/mol; molar heat capacity at constant pressure (126.2 K): 143.67 ± 0.89 J/K/mol; molar heat capacity at constant pressure (126.3 K): 143.66 ± 0.89 J/K/mol; molar heat capacity at constant pressure (126.97 K): 143.36 ± 0.64 J/K/mol; molar heat capacity at constant pressure (127.03 K): 143.46 ± 0.64 J/K/mol; molar heat capacity at constant pressure (127.37 K): 144.66 ± 0.9 J/K/mol; molar heat capacity at constant pressure (127.62 K): 145 ± 0.9 J/K/mol; molar heat capacity at constant pressure (128.08 K): 144.35 ± 0.64 J/K/mol; molar heat capacity at constant pressure (128.47 K): 145.88 ± 0.89 J/K/mol; molar heat capacity at constant pressure (128.7 K): 145.15 ± 0.64 J/K/mol; molar heat capacity at constant pressure (129.05 K): 145.44 ± 0.65 J/K/mol; molar heat capacity at constant pressure (129.14 K): 145.37 ± 0.65 J/K/mol; molar heat capacity at constant pressure (129.38 K): 146.91 ± 0.9 J/K/mol; molar heat capacity at constant pressure (129.54 K): 146.79 ± 0.9 J/K/mol; molar heat capacity at constant pressure (130 K): 146.3 ± 0.6 J/K/mol; molar heat capacity at constant pressure (130.2 K): 146.58 ± 0.65 J/K/mol; molar heat capacity at constant pressure (130.3 K): 147.58 ± 0.9 J/K/mol; molar heat capacity at constant pressure (130.62 K): 147.67 ± 0.9 J/K/mol; molar heat capacity at constant pressure (131.13 K): 147.52 ± 0.65 J/K/mol; molar heat capacity at constant pressure (131.25 K): 147.55 ± 0.65 J/K/mol; molar heat capacity at constant pressure (131.69 K): 149.05 ± 0.91 J/K/mol; molar heat capacity at constant pressure (131.82 K): 148.2 ± 0.65 J/K/mol; molar heat capacity at constant pressure (132.31 K): 148.61 ± 0.65 J/K/mol; molar heat capacity at constant pressure (132.53 K): 150.01 ± 0.92 J/K/mol; molar heat capacity at constant pressure (132.77 K): 150.08 ± 0.92 J/K/mol; molar heat capacity at constant pressure (132.95 K): 150.13 ± 0.92 J/K/mol; molar heat capacity at constant pressure (133.22 K): 149.57 ± 0.65 J/K/mol; molar heat capacity at constant pressure (133.37 K): 149.93 ± 0.65 J/K/mol; molar heat capacity at constant pressure (133.85 K): 151.35 ± 0.91 J/K/mol; molar heat capacity at constant pressure (134.43 K): 150.8 ± 0.66 J/K/mol; molar heat capacity at constant pressure (134.92 K): 152.13 ± 0.92 J/K/mol; molar heat capacity at constant pressure (134.93 K): 151.23 ± 0.66 J/K/mol; molar heat capacity at constant pressure (135.3 K): 151.53 ± 0.66 J/K/mol; molar heat capacity at constant pressure (135.49 K): 151.95 ± 0.66 J/K/mol; molar heat capacity at constant pressure (135.59 K): 152.75 ± 0.92 J/K/mol; molar heat capacity at constant pressure (135.69 K): 153.09 ± 0.92 J/K/mol; molar heat capacity at constant pressure (136 K): 153.04 ± 0.92 J/K/mol; molar heat capacity at constant pressure (136.56 K): 152.7 ± 0.66 J/K/mol; molar heat capacity at constant pressure (137.07 K): 154.23 ± 0.93 J/K/mol; molar heat capacity at constant pressure (137.39 K): 153.55 ± 0.67 J/K/mol; molar heat capacity at constant pressure (137.61 K): 153.75 ± 0.67 J/K/mol; molar heat capacity at constant pressure (138.05 K): 154.26 ± 0.67 J/K/mol; molar heat capacity at constant pressure (138.14 K): 155.44 ± 0.93 J/K/mol; molar heat capacity at constant pressure (138.23 K): 155.31 ± 0.93 J/K/mol; molar heat capacity at constant pressure (138.67 K): 154.9 ± 0.67 J/K/mol; molar heat capacity at constant pressure (138.85 K): 156.32 ± 0.93 J/K/mol; molar heat capacity at constant pressure (139.22 K): 156.25 ± 0.93 J/K/mol; molar heat capacity at constant pressure (139.47 K): 155.53 ± 0.67 J/K/mol; molar heat capacity at constant pressure (139.72 K): 155.9 ± 0.68 J/K/mol; molar heat capacity at constant pressure (140 K): 156 ± 0.7 J/K/mol; molar heat capacity at constant pressure (140.3 K): 157.18 ± 0.93 J/K/mol; molar heat capacity at constant pressure (140.78 K): 156.94 ± 0.67 J/K/mol; molar heat capacity at constant pressure (140.87 K): 157.92 ± 0.93 J/K/mol; molar heat capacity at constant pressure (141.16 K): 157.45 ± 0.67 J/K/mol; molar heat capacity at constant pressure (141.37 K): 158.29 ± 0.94 J/K/mol; molar heat capacity at constant pressure (141.56 K): 157.55 ± 0.67 J/K/mol; molar heat capacity at constant pressure (141.83 K): 157.84 ± 0.67 J/K/mol; molar heat capacity at constant pressure (142.01 K): 159.46 ± 0.94 J/K/mol; molar heat capacity at constant pressure (142.45 K): 159.47 ± 0.94 J/K/mol; molar heat capacity at constant pressure (142.89 K): 158.79 ± 0.68 J/K/mol; molar heat capacity at constant pressure (143.51 K): 160.83 ± 0.95 J/K/mol; molar heat capacity at constant pressure (143.52 K): 160.62 ± 0.95 J/K/mol; molar heat capacity at constant pressure (143.64 K): 159.6 ± 0.68 J/K/mol; molar heat capacity at constant pressure (143.94 K): 159.82 ± 0.68 J/K/mol; molar heat capacity at constant pressure (144.28 K): 160.35 ± 0.68 J/K/mol; molar heat capacity at constant pressure (144.6 K): 161.74 ± 0.94 J/K/mol; molar heat capacity at constant pressure (144.99 K): 160.85 ± 0.69 J/K/mol; molar heat capacity at constant pressure (145.18 K): 162.59 ± 0.95 J/K/mol; molar heat capacity at constant pressure (145.7 K): 162.72 ± 0.95 J/K/mol; molar heat capacity at constant pressure (145.73 K): 161.63 ± 0.69 J/K/mol; molar heat capacity at constant pressure (146.04 K): 161.99 ± 0.69 J/K/mol; molar heat capacity at constant pressure (146.16 K): 163.13 ± 0.95 J/K/mol; molar heat capacity at constant pressure (146.78 K): 163.89 ± 0.95 J/K/mol; molar heat capacity at constant pressure (147.09 K): 162.84 ± 0.69 J/K/mol; molar heat capacity at constant pressure (147.4 K): 163.32 ± 0.69 J/K/mol; molar heat capacity at constant pressure (147.81 K): 163.57 ± 0.69 J/K/mol
